Data from patent US12077503B2, “Substituted cyclic amides and their use as herbicides” (FMC CORPORATION, priority 2015, dated 2024).

Columns and labels:
Assay in all cases: Test C preemergence
Type in all cases: in vivo
[1] = test system: Galium (catchweed bedstraw, Galium aparine); details: for Plant response rating, Galium: scale 0 to 100, 0 no effect, 100 complete control
Outline: (§1)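 Visual 0 (no effect) to 100 (complete control) ratings versus controls, taken 13–15 d after treatment in the greenhouse; dash means no result. Compounds in a surfactant-containing non-phytotoxic solvent blend were applied preemergence to seeds in loam-sand soil or postemergence to 1- to 4-leaf plants (2–18 cm) in peat-based medium.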

[2] = test system: barnyardgrass (Echinochloa crus-galli); details: for Plant response rating, Barnyardgrass: scale 0 to 100, 0 no effect, 100 complete control
Outline: as §1

[3] = test system: blackgrass (Alopecurus myosuroides); details: for Plant response rating, Blackgrass: scale 0 to 100, 0 no effect, 100 complete control
Outline: as §1

corn (Zea mays) = details: for Plant response rating, Corn: scale 0 to 100, 0 no effect, 100 complete control
Outline: as §1

[4] = test system: crabgrass, large (large crabgrass, Digitaria sanguinalis); details: for Plant response rating, Crabgrass, Large: scale 0 to 100, 0 no effect, 100 complete control
Outline: as §1

[5] = test system: foxtail, giant (giant foxtail, Setaria faberii); details: for Plant response rating, Foxtail, Giant: scale 0 to 100, 0 no effect, 100 complete control
Outline: as §1

[6] = test system: johnsongrass (Sorghum halepense); details: for Plant response rating, Johnsongrass: scale 0 to 100, 0 no effect, 100 complete control
Outline: as §1

[7] = test system: lambsquarters (Chenopodium album); details: for Plant response rating, Lambsquarters: scale 0 to 100, 0 no effect, 100 complete control
Outline: as §1

[8] = test system: morningglory (Ipomoea coccinea); details: for Plant response rating, Morningglory: scale 0 to 100, 0 no effect, 100 complete control
Outline: as §1

[9] = test system: nutsedge, yellow (yellow nutsedge, Cyperus esculentus); details: for Plant response rating, Nutsedge, Yellow: scale 0 to 100, 0 no effect, 100 complete control
Outline: as §1

[10] = test system: oilseed rape (Brassica napus); details: for Plant response rating, Oilseed Rape: scale 0 to 100, 0 no effect, 100 complete control
Outline: as §1

[11] = test system: ragweed (common ragweed, Ambrosia elatior); details: for Plant response rating, Ragweed: scale 0 to 100, 0 no effect, 100 complete control
Outline: as §1

[12] = test system: ryegrass, Italian (Italian ryegrass, Lolium multiflorum); details: for Plant response rating, Ryegrass, Italian: scale 0 to 100, 0 no effect, 100 complete control
Outline: as §1

soybean (Glycine max) = details: for Plant response rating, Soybean: scale 0 to 100, 0 no effect, 100 complete control
Outline: as §1

[13] = test system: velvetleaf (Abutilon theophrasti); details: for Plant response rating, Velvetleaf: scale 0 to 100, 0 no effect, 100 complete control
Outline: as §1

[14] = test system: waterhemp (common waterhemp, Amaranthus rudis); details: for Plant response rating, Waterhemp: scale 0 to 100, 0 no effect, 100 complete control
Outline: as §1

[15] = test system: wheat (winter wheat, Triticum aestivum); details: for Plant response rating, Wheat: scale 0 to 100, 0 no effect, 100 complete control
Outline: as §1

[16] = 31 g ai/ha, 0 is no effect, 100 is complete control

CN1CC(c2cccc(C(F)(F)F)c2)C(C(=O)Nc2cccc(F)c2F)C1=O (centres unmarked) [Compound 636]
Plant response rating (scale of 0 to 100), Galium [1, 16]: 85
Plant response rating, Galium ([1]; 62 g ai/ha): 85
Plant response rating, Galium ([1]; 125 g ai/ha): 90
Plant response rating, Galium ([1]; 250 g ai/ha): 90
Plant response rating (scale of 0 to 100), Barnyardgrass [2, 16]: 90
Plant response rating, Barnyardgrass ([2]; 62 g ai/ha): 90
Plant response rating, Barnyardgrass ([2]; 125 g ai/ha): 95
Plant response rating, Barnyardgrass ([2]; 250 g ai/ha): 95
Plant response rating (scale of 0 to 100), Blackgrass [3, 16]: 90
Plant response rating, Blackgrass ([3]; 62 g ai/ha): 85
Plant response rating, Blackgrass ([3]; 125 g ai/ha): 90
Plant response rating, Blackgrass ([3]; 250 g ai/ha): 90
Plant response rating (scale of 0 to 100), Corn (corn (Zea mays); [16]): 60
Plant response rating, Corn (corn (Zea mays); 62 g ai/ha): 80
Plant response rating, Corn (corn (Zea mays); 125 g ai/ha): 85
Plant response rating, Corn (corn (Zea mays); 250 g ai/ha): 90
Plant response rating (scale of 0 to 100), Crabgrass, Large [4, 16]: 95
Plant response rating, Crabgrass, Large ([4]; 62 g ai/ha): 98
Plant response rating, Crabgrass, Large ([4]; 125 g ai/ha): 100
Plant response rating, Crabgrass, Large ([4]; 250 g ai/ha): 100
Plant response rating (scale of 0 to 100), Foxtail, Giant [5, 16]: 85
Plant response rating, Foxtail, Giant ([5]; 62 g ai/ha): 90
Plant response rating, Foxtail, Giant ([5]; 125 g ai/ha): 90
Plant response rating, Foxtail, Giant ([5]; 250 g ai/ha): 90
Plant response rating (scale of 0 to 100), Johnsongrass [6, 16]: 80
Plant response rating, Johnsongrass ([6]; 62 g ai/ha): 85
Plant response rating, Johnsongrass ([6]; 125 g ai/ha): 85
Plant response rating, Johnsongrass ([6]; 250 g ai/ha): 90
Plant response rating (scale of 0 to 100), Lambsquarters [7, 16]: 40
Plant response rating, Lambsquarters ([7]; 62 g ai/ha): 40
Plant response rating, Lambsquarters ([7]; 125 g ai/ha): 55
Plant response rating, Lambsquarters ([7]; 250 g ai/ha): 65
Plant response rating (scale of 0 to 100), Morningglory [8, 16]: 5
Plant response rating, Morningglory ([8]; 62 g ai/ha): 25
Plant response rating, Morningglory ([8]; 125 g ai/ha): 35
Plant response rating, Morningglory ([8]; 250 g ai/ha): 65
Plant response rating (scale of 0 to 100), Nutsedge, Yellow [9, 16]: 0
Plant response rating, Nutsedge, Yellow ([9]; 62 g ai/ha): 75
Plant response rating, Nutsedge, Yellow ([9]; 125 g ai/ha): 0
Plant response rating, Nutsedge, Yellow ([9]; 250 g ai/ha): 60
Plant response rating (scale of 0 to 100), Oilseed Rape [10, 16]: 80
Plant response rating, Oilseed Rape ([10]; 62 g ai/ha): 60
Plant response rating, Oilseed Rape ([10]; 125 g ai/ha): 85
Plant response rating, Oilseed Rape ([10]; 250 g ai/ha): 90
Plant response rating (scale of 0 to 100), Ragweed [11, 16]: 20
Plant response rating, Ragweed ([11]; 62 g ai/ha): 65
Plant response rating, Ragweed ([11]; 125 g ai/ha): 65
Plant response rating, Ragweed ([11]; 250 g ai/ha): 80
Plant response rating (scale of 0 to 100), Ryegrass, Italian [12, 16]: 70
Plant response rating, Ryegrass, Italian ([12]; 62 g ai/ha): 30
Plant response rating, Ryegrass, Italian ([12]; 125 g ai/ha): 50
Plant response rating, Ryegrass, Italian ([12]; 250 g ai/ha): 90
Plant response rating (scale of 0 to 100), Soybean (soybean (Glycine max); [16]): 0
Plant response rating, Soybean (soybean (Glycine max); 62 g ai/ha): 75
Plant response rating, Soybean (soybean (Glycine max); 125 g ai/ha): 0
Plant response rating, Soybean (soybean (Glycine max); 250 g ai/ha): 0
Plant response rating (scale of 0 to 100), Velvetleaf [13, 16]: 5
Plant response rating, Velvetleaf ([13]; 62 g ai/ha): 50
Plant response rating, Velvetleaf ([13]; 125 g ai/ha): 55
Plant response rating, Velvetleaf ([13]; 250 g ai/ha): 55
Plant response rating (scale of 0 to 100), Waterhemp [14, 16]: 65
Plant response rating, Waterhemp ([14]; 62 g ai/ha): 75
Plant response rating, Waterhemp ([14]; 125 g ai/ha): 85
Plant response rating, Waterhemp ([14]; 250 g ai/ha): 85
Plant response rating (scale of 0 to 100), Wheat [15, 16]: 35
Plant response rating, Wheat ([15]; 62 g ai/ha): 45
Plant response rating, Wheat ([15]; 125 g ai/ha): 65
Plant response rating, Wheat ([15]; 250 g ai/ha): 75
